{
  "source": "patent US8771983B2",
  "about": "“Method and kit for expressing protein under regulation of the expression from repeated sequence formed by gene amplification, and transformant” (National University of Corporation Hiroshima University, priority 2004, dated 2014)",
  "key": {"[1]": {"tested_on": "expression of d2EGFP in Tet-ON cells (COLO 320DM) transfected with pSFVdhfr/d2EGFP", "assay": "Level of expression of d2EGFP by cell sorter in HSR and DM clones of Tet-ON cells with 5-aza (Example 7)", "format": "cell-based, human", "conditions": "1 week, Doxycycline 1 μg/ml", "procedure": "Fluorescence intensity of these cells were measured by using a cell sorter. The measurement was carried out by sorting 20,000 cells by setting living cells at a gate. The cell sorter used was made by Becton Dickinson, and operated under conditions as described in the manual attached thereto.\nIn this method for detecting the fluorescence intensity, detection limit was 1, and all fluorescence intensities of 1 or less would be detected as 1. In view of this, a product of a ratio (cell %) of cells of fluorescence intensities of 2 or more in all living cells (10,000 cells) and an average of the fluorescence intensities of the cells having fluorescence intensities of 2 or more was calculated out for each experimental plot. This product is referred to as “accumulated fluorescence intensity” hereinafter and in later Examples and shown in boxed letter in the figures.\nBy lipofection, the pTet-ON plasmid (Clontech Laboratories Inc.) having Tet-ON gene encoding a transcription activating factor (Tet-ON protein) for promoting TRE-promoter was transfected into human colon cancer COLO 320DM. Transformed cells (hereinafter referred to as “Tet-ON cells”) which stably expressed Tet-ON protein, were selected with Hygromycin.\nNext, the pSFVdhfr/d2EGFP plasmid was transfected into the Tet-ON cells by lipofection. The cells thus obtained were selected with 5 μg/ml of Blasticidin for approximately 3 weeks, thereby obtaining a polyclonal population of the stable transformed cells.\nThe expression of d2EGFP was induced in the polyclonal population by activating TRE-promoter by adding 5 μg/ml of Doxycycline (Clontech Laboratories Inc.) in the medium. FIG. 9 illustrates a result of analysis of the level of the expression of d2EGFP in this case by using a cell sorter. In FIG. 9, the value in parenthesis is an average of fluorescence intensities (i.e., average fluorescence intensity), and boxed value is an accumulated fluorescence intensity. Based on the result of FIG. 9, it was confirmed that the polyclonal population was a population for expressing d2EGFP (average fluorescence intensity: 6.25, accumulated fluorescence intensity: 536).\nFrom the polyclonal population, given 30 clones were obtained by a limiting dilution method that was carried out by inoculating a clone to 6 well plates with such a low cell concentration of 30 cells/ml, and incubating the plates for 10 days to 2 weeks thereby obtaining colonies thereon.\nFrom among the clones, 4 clones having high levels of expression of d2EGFP (Clone 4, Clone 5, Clone 6, and Clone 9) were selected by fluorescence microscopic observation. Mitotic chromosome samples of the 4 clones were prepared. By FISH method, detection for a base sequence derived from the transfected pSFVdhfr/d2EGFP plasmid was carried out. The preparation of mitotic chromosome samples and the FISH method were carried out as described in Shimizu, N., Kanda, T., and Wahl, G. M. Selective capture of acentric fragments by micronuclei provides a rapid method of purifying extrachromosomally amplified DNA. Nature Genet., 12: 65-71, 1996.\nFor 4 clones, induction with Doxycycline (Clontech Laboratories Inc.; 1 μg/ml) was carried out and 5-aza (0 μM, 1 μM or 3 μM) was added in the medium. After 1 week culturing, the level of expression of d2EGFP in each clone was analyzed by using a cell sorter."}, "[2]": {"tested_on": "expression of d2EGFP in human colon cancer COLO 320DM cells", "assay": "Level of expression of d2EGFP by cell sorter in DM clone treated with 5-aza (Example 9)", "format": "cell-based", "conditions": "DM clone treated with 3 μM of 5-aza for 3 days, then Doxycycline 1 μg/ml for 2 days", "description": "An equimolar mixture of a plasmid (pSFVdhfr/d2EGFP) and pTet-ON plasmid (Clontech Laboratories Inc.) was simultaneously transfected into human colon cancer COLO 320DM cells. The plasmid (pSFVdhfr/d2EGFP) was a plasmid having (a) IR and MAR derived from human DHFR gene locus, (b) Blasticidin tolerance gene, and (c) d2EGFP gene that was under control of TRE-promoter (Tetracycline inducing promoter). Meanwhile, the pTet-ON plasmid was a plasmid having Tet-ON gene encoding the transcription activating factor (Tet-ON protein) of TRE-promoter. The cells were selected with 5 μg/ml of Blasticidin thereby obtaining a polyclonal population of transformed cells. […] In FIG. 20, the detected base sequence derived from the pSFVdhfr/d2EGFP plasmid is indicated by the arrow. […]\nIn each culture solution of the two clones, 3 μM of 5-aza was added and thereby the clones were treated with 5-aza for 3 days. […] After the culturing, the level of the expression of d2EGFP in each clone was analyzed by a cell sorter. […] This polyclonal population of transformed cells was subjected to the induction of expression of d2EGFP with Doxycycline and a level of the expression of d2EGFP therein was analyzed by using the cell sorter in the same way as described above. […] FIG. 21(a) illustrates the result of the fluorescence intensity measurements of HSR clone two days after the addition of Doxycycline. […]"}, "[3]": {"conditions": "clone 4 (HSR), 1 μM of 5-aza in the medium"}, "[4]": {"conditions": "clone 4 (HSR), 3 μM of 5-aza in the medium"}, "[5]": {"conditions": "clone 5 (HSR), 1 μM of 5-aza in the medium"}, "[6]": {"conditions": "clone 5 (HSR), 3 μM of 5-aza in the medium"}, "[7]": {"conditions": "clone 6 (HSR), 1 μM of 5-aza in the medium"}, "[8]": {"conditions": "clone 6 (HSR), 3 μM of 5-aza in the medium"}, "[9]": {"conditions": "clone 9 (DM), 1 μM of 5-aza in the medium"}, "[10]": {"conditions": "clone 9 (DM), 3 μM of 5-aza in the medium"}},
  "data": [
    {"compound": "Nc1ncn([C@H]2C[C@H](O)[C@@H](CO)O2)c(=O)n1", "note": "[5-aza, 5-aza-2′-deoxycytidine]", "values": [
      {"measurement": "accumulate fluorescence intensity", "setting": "[1]; [3]", "result": 453},
      {"measurement": "average fluorescence intensity", "setting": "[1]; [3]", "result": 5.46},
      {"measurement": "accumulate fluorescence intensity", "setting": "[1]; [4]", "result": 2300},
      {"measurement": "average fluorescence intensity", "setting": "[1]; [4]", "result": 23.76},
      {"measurement": "accumulate fluorescence intensity", "setting": "[1]; [5]", "result": 126},
      {"measurement": "average fluorescence intensity", "setting": "[1]; [5]", "result": 2.23},
      {"measurement": "accumulate fluorescence intensity", "setting": "[1]; [6]", "result": 962},
      {"measurement": "average fluorescence intensity", "setting": "[1]; [6]", "result": 10.44},
      {"measurement": "accumulate fluorescence intensity", "setting": "[1]; [7]", "result": 111},
      {"measurement": "average fluorescence intensity", "setting": "[1]; [7]", "result": 2.09},
      {"measurement": "accumulate fluorescence intensity", "setting": "[1]; [8]", "result": 1000},
      {"measurement": "average fluorescence intensity", "setting": "[1]; [8]", "result": 10.87},
      {"measurement": "accumulate fluorescence intensity", "setting": "[1]; [9]", "result": 13200},
      {"measurement": "average fluorescence intensity", "setting": "[1]; [9]", "result": 131.86},
      {"measurement": "accumulate fluorescence intensity", "setting": "[1]; [10]", "result": 24900},
      {"measurement": "average fluorescence intensity", "setting": "[1]; [10]", "result": 248.60},
      {"measurement": "accumulated fluorescence intensity", "setting": "[2]", "result": 238113}
    ]}
  ]
}
